Read-outs that look alike come from different tables or passages of the source.
Key:
FXa = FXa (Homo sapiens, UniProt P00742); assay: Clotting curves: clot detection time versus FXa agonist gradient (FIGS. 7A-7C); format: biochemical
Protocol: (§1) Clot detection agents can include fluorescent labeled fibrinogen, magnets, beads (may be fluorescent or colored) • b) Load into microfluidic device • i. See, e.g., FIGS. 1A-1D, 2A and 2B for examples of input loading configuration and order • c) Temperature control • i. Room temperature • ii. May increase up to 37° C.
(§2) The time it takes for each of the combinations to form a clot is then plotted. […] Concentration of the agonist (FXa for FIGS. 7A-7C, and FIIa for FIG. 7D) is plotted on the X-axis for each of the figures.

FIIa = FIIa (Homo sapiens, UniProt P00734)
Protocol: as §1, §2

Factor Xa = Factor Xa (Homo sapiens, UniProt P00742); assay: Clot detection in whole blood in parallel microfluidic channel device pre-coated with Factor Xa; format: biochemical; details: whole blood with unfractionated heparin, 10 minutes
Chain of Factor Xa (P00742 235-488 limits assumed): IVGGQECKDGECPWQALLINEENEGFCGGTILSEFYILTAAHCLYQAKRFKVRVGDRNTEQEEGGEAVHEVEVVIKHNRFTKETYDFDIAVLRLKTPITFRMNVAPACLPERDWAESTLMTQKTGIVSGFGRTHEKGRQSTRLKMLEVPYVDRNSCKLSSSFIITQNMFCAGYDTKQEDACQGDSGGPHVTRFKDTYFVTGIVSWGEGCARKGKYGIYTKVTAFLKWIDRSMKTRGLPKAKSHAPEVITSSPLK
Chain of Factor Xa (P00742 41-179 partner limits assumed): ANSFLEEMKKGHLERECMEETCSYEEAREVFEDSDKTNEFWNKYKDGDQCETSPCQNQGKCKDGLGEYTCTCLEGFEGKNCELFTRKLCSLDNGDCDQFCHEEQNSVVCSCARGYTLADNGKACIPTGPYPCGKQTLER
Protocol: FIGS. 4A and 4B are fluorescent images illustrating clot detection using whole blood in a parallel microfluidic channel device 410 according to an example embodiment. Microfluidic channels 420 were pre-coated with agonist, Factor Xa, at various concentrations (7.5 ng/mL, 75 ng/mL, 750 ng/mL) or with buffer alone (negative control). The fluorescent images are taken at one time point (10 minutes). Microfluidic channels were washed with buffer prior to use to leave only bound FXa within the microfluidic channel. Fresh whole blood was placed into each input port and the blood was drawn in through capillary action. The blood was left to flow for 10 minutes and then the channel was gently washed with buffer. Depicted is a brightfield image of two samples evaluated. […] Unfractionated heparin inhibits Factors IIa and Xa in an antithrombin III-dependent fashion, which is why the addition of these factors at appropriate concentrations can help recover the clotting capability of the sample.

Chain of FXa (P00742 235-488 limits assumed): as the sequence (P00742 235-488 limits assumed) above
Chain of FXa (P00742 41-179 partner limits assumed): as the sequence (P00742 41-179 partner limits assumed) above

## O=C(NC[C@H]1CN(c2ccc(N3CCOCC3=O)cc2)C(=O)O1)c1ccc(Cl)s1 [Rivaroxaban]
FXa; 250 ng/mL Rivaroxaban, agonist (FXa) concentration down to 375 ng/mL
  clot formation time: significantly longer than the negative control but lower than 500 ng/mL
FXa; 500 ng/mL Rivaroxaban, agonist (FXa) down to 750 ng/mL
  clot formation detected (time): < 2.5 min

## Dabigatran
FIIa; 250 ng/mL Dabigatran, agonist (FIIa) concentration down to 710 ng/mL
  clot formation detected (time): < 2.5 min
FIIa; 500 ng/mL Dabigatran, agonist (FIIa) down to 710 ng/mL
  clot formation detected (time): < 2.5 min
FIIa; < 25 ng/mL Dabigatran, agonist (FIIa) concentration down to 71 ng/mL
  clot formation detected (time): < 2.5 min

## unfractionated heparin
Factor Xa; channels coated with 7.5, 75, 750 ng/mL FXa
  clot formation: gradient of clot formation dependent on the concentration of FXa in the channel
Factor Xa; negative control channel (buffer alone, no FXa)
  clot formation: minimal clot formation
